Experimental findings from PubChem BioAssay (NCI) are described below.

Several values for one entry are separate records, joined by “and”; a condition that tells them apart may be missing. Equal entries are not always repeated.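 48-hour exposure; five concentrations; linearly interpolated endpoints. GI50 = concentration required for 50% inhibition of growth. TGI: total growth inhibition.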 A value given as a limit tells only on which side of the number the result lay.

What all share (assay): growth of human tumour cells (NCI), 48 h
For assay [1], the system named is SW-620 colon.
The subject of assay [2] is SF-295 CNS.
The test system of assay [3] is NCI-H23 lung.
Assay [4] has as its system HOP-92 NSCLC.
Assay [5] has as its system 786-0 renal.
In assay [6] the test system is SK-MEL-28 melanoma.
Assay [7] deals with MOLT-4 leukemia.
For assay [8], the system named is HCT-116 colon.
Assay [9] has as its system UACC-62 melanoma.
Assay [10] concerns SF-539 CNS.

In the case of `O=C(Nc1ccc(OCc2nnc(-c3ccc(Cl)cc3)o2)c(F)c1)Nc1ccc(Cl)c(C(F)(F)F)c1`, the GI50 in [1] is 2.9 µM; in [2], 2.26 µM; in [3], 2.36 µM; in assay [4] it was 1.46 µM; in [5], 2.05 µM; in assay [6], 3.02 µM. Besides, the GI50 in [7] is 2.07 µM; in assay [8] it was 1.8 µM; in assay [9], 1.54 µM; in [10] it was 1.91 µM. In addition, the TGI in assay [1] was determined as 11 µM; in assay [2] it was 6.99 µM; in [3], 7.38 µM; in assay [4], 3.82 µM; in [5] it was 5.1 µM; in [6], 13.5 µM. The TGI is 7.5 µM in assay [7], 6.16 µM in assay [8], 4.21 µM in assay [9] and 4.34 µM in [10].

In the case of `Cc1ccc(-c2nnc(-c3nn(-c4ccccc4)c4nc5ccccc5nc34)o2)cc1`, the TGI was > 100 µM in assay [1]; 36.8 µM in assay [2]; 40.6 µM in [3]; 20.9 µM in assay [4]; 21.6 µM in [5]; > 100 µM in assay [6]. The TGI is > 100 µM in assay [7], 25 µM in assay [8], 30.8 µM in assay [9] and 9.62 µM in [10].

For `O=C1c2ccccc2-c2cc([N+](=O)[O-])c([N+](=O)[O-])cc21`, the TGI is > 21.1 µM in [1]; 3.08 µM in assay [2]; 3.25 µM in [3]; 3.2 µM in [4]; 5.86 µM in assay [5]; 8.4 µM in [6]. The TGI in assay [7] is 4.36 µM; in assay [8] it was 6.23 µM; in [9] it was 3.13 µM; in assay [10], 1.03 µM.

As to `CO/N=C(\COc1ccc2c(c1)[nH]c1ccccc12)c1ccc(F)cc1`, the GI50 was > 100 µM in [1]; 30.1 µM in assay [2]; > 100 µM in [3]; 13.7 µM in assay [4]; 16.8 µM in assay [5]; > 100 µM in assay [6]. The GI50 is 20.6 µM in assay [8], 95.9 µM in assay [9] and > 100 µM in assay [10]. The TGI is > 100 µM in [1]; > 100 µM in assay [2]; > 100 µM in [3]; 55.2 µM in [4]; > 100 µM in assay [5]; > 100 µM in assay [6]. Also, the TGI in [8], in assay [9] and in assay [10] was > 100 µM throughout.

As for `N#CC1(C(N)=O)C(c2ccc(Cl)cc2)CC(=O)CC1c1ccc(Cl)cc1` (configuration not stated), the GI50 in [1] is 17.2 µM; in assay [2] it was 15 µM; in assay [4] it was 16.4 µM; in assay [5], 17.1 µM; in [6], 16.6 µM; in [7], 17.1 µM. Moreover, the values for the GI50 in assay [8], in assay [9] and in [10] were 14.8 µM, 13.6 µM and 18.4 µM, respectively. For the same compound, the TGI was determined as 31.1 µM in [1]; 33.4 µM in [2]; 32.1 µM in assay [4]; 30.8 µM in assay [5]; 30.6 µM in assay [6]; 54.3 µM in assay [7]. The TGI in assay [8] stood at 28 µM; in [9], 27.2 µM; in [10], 34.5 µM.

With `Nc1nc(OCc2ccccc2)c2[nH]cnc2n1`, the GI50 was 98.5 µM in assay [1]; 35.2 µM and 24.1 µM in assay [2]; 31.6 µM and 46.9 µM in [3]; 7.9 µM and 27.2 µM in assay [4]; 40.1 µM and 27.8 µM in assay [5]; 46.7 µM and 62.9 µM in [6]. Moreover, the GI50 in assay [7] was 88.4 µM and 33.5 µM; in assay [8], 34.7 µM and 34.5 µM; in assay [9], 25 µM and 17.3 µM; in assay [10], 30 µM and 31.4 µM. The TGI in assay [1] is 400 µM and 289 µM; in assay [2] it was 395 µM and 118 µM; in [3] it was 326 µM and 229 µM; in [4], 89.2 µM and 239 µM and 183 µM; in assay [5] it was 400 µM and 96.9 µM; in assay [6], 400 µM and 293 µM. The TGI was 200 µM and 126 µM in [7]; 209 µM and 137 µM in assay [8]; 128 µM and 90.7 µM in assay [9]; 266 µM and 154 µM in assay [10].

As to `O=S(=O)(Nc1cc(Sc2cccc3cccnc23)c(O)c2ccccc12)c1ccc(F)cc1`, the GI50 was 1.41 µM in [1]; 3.34 µM in [2]; 1.46 µM in assay [3]; 2.02 µM in assay [4]; 1.19 µM in [5]; 1.56 µM in [6]. The GI50 was 0.432 µM in assay [7], 0.604 µM in [8], 1.85 µM in assay [9] and 2.04 µM in [10]. Also, the TGI in [1] stood at 3.86 µM; in assay [2], 12.8 µM; in assay [3] it was 4.32 µM; in [4] it was 7.08 µM; in assay [5], 6.85 µM; in assay [6], 4.16 µM. Besides, the TGI in assay [7] was found to be 3.21 µM; in assay [8], 2.13 µM; in assay [9], 4.39 µM; in [10] it was 5.99 µM.

For `NNC(=O)CS(=O)(=O)Nc1ncccn1`, the TGI in assay [1], in assay [2], in assay [3], in assay [4], in [5] and in [6] was > 100 µM in each case. The TGI in [8], in assay [9] and in assay [10] was > 100 µM in each case.

As to `C/C(=C\c1ccc2ccccc2c1)[N+](=O)[O-]`, the GI50 in assay [1] was 1.78 µM; in assay [2] it was 13.1 µM; in [4], 1.96 µM; in assay [5], 1.99 µM; in assay [6] it was 1.95 µM; in [7], 2.61 µM. In addition, the GI50 in assay [8] is 2.19 µM; in assay [9], 1.76 µM; in assay [10], 1.64 µM. The TGI in assay [1] was determined as 3.54 µM; in assay [2], 27.6 µM; in [4] it was 5.06 µM; in assay [5], 3.83 µM; in assay [6], 4.06 µM; in [7], 6.48 µM. Moreover, the TGI in assay [8] is 5.58 µM; in assay [9], 3.26 µM; in assay [10], 3.07 µM.

As for `O=C(NC1CCCCC1)NS(=O)(=O)c1ccc2c(c1)CCC2`, the TGI in assay [1], in [2], in assay [3], in assay [4], in assay [5] and in [6] was > 100 µM each time. Besides, the TGI in assay [7], in assay [9] and in [10] was > 100 µM throughout.
